Measurements from ChEMBL document CHEMBL2034889, “The design and synthesis of novel, potent and orally bioavailable N-aryl piperazine-1-carboxamide CCR2 antagonists with very high hERG selectivity” (Bioorg Med Chem Lett, 2012).

Experiments:
[1] = target: T1, C-C chemokine receptor type 2 (Homo sapiens, UniProt P41597); assay: Displacement of 125I-MCP1 from human CCR2 receptor expressed in human THP-1 cell membrane by SPA assay; format: cell membranes
[2] = target: T1, C-C chemokine receptor type 2; assay: Antagonist activity at human CCR2 receptor expressed in human THP-1 cells assessed as inhibition of MCP1-induced Ca2+ flux by FLIPR analysis; format: functional, cell-based
[3] = target: Voltage-gated inwardly rectifying potassium channel KCNH2 (Homo sapiens, UniProt Q12809)
Voltage-gated inwardly rectifying potassium channel KCNH2, sequence (Q12809 whole entry): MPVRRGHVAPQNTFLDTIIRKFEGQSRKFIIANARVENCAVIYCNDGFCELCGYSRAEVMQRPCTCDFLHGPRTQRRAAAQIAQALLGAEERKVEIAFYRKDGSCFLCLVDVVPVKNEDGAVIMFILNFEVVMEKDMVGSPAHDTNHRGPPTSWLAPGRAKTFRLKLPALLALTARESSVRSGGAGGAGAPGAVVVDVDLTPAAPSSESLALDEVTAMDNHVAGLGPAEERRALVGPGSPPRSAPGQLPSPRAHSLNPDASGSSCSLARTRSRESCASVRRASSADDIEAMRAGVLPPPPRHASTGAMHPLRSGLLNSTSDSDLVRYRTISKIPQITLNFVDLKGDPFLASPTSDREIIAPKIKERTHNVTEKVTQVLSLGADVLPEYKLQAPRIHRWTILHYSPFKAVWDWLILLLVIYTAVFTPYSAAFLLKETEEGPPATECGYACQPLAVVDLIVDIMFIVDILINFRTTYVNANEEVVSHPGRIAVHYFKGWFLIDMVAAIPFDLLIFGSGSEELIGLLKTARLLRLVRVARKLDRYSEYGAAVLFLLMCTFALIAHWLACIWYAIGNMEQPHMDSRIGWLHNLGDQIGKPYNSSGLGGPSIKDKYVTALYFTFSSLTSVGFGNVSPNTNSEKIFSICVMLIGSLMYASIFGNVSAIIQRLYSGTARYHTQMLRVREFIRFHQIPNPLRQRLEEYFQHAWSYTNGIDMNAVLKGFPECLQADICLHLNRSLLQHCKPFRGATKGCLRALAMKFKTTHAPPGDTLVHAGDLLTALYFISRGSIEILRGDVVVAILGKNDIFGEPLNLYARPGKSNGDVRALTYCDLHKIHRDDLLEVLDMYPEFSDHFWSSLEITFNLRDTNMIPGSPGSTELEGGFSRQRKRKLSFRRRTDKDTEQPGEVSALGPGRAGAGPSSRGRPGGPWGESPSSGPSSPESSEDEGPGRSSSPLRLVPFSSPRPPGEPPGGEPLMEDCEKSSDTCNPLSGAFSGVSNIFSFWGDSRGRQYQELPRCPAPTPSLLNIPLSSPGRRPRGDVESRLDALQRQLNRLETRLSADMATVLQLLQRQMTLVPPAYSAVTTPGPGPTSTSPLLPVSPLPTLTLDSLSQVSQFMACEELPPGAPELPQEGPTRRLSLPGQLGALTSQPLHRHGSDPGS

[4] = target: T1, C-C chemokine receptor type 2; assay: Displacement of 125I-MCP1 from human CCR2 receptor expressed in human HEK cell membrane; format: cell membranes, HEK293
[5] = Lipophilicity, log D of the compound at pH 7.4; format: physicochemical; conditions: buffer
[6] = Lipophilicity, log P of the compound at pH 7.4; format: physicochemical; conditions: buffer
[7] = Dissociation constant, pKa of the compound; format: physicochemical

T1 sequence (P41597 whole entry): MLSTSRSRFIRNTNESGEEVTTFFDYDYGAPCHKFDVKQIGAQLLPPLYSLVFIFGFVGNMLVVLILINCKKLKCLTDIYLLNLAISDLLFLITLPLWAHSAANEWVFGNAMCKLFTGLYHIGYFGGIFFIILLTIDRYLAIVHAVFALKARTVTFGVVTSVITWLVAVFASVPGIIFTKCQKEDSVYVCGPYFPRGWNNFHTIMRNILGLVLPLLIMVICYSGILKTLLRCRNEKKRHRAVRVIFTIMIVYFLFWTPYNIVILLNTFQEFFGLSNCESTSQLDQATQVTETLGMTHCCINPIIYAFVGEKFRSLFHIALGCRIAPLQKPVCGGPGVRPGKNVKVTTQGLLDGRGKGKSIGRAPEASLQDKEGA

| Compound | IC50 [1] [nM] | IC50 [2] [nM] | Ki [4] [nM] | logD [5] | logP [6] | pKa [7] | IC50 [3] [nM] |
| --- | --- | --- | --- | --- | --- | --- | --- |
| CCN1CCCC(CN2CCN(C(=O)Nc3ccc(Cl)c(Cl)c3)CC2)C1 (racemic) | 123 | 627 |  |  |  |  | 4300 |
| CN1CCN(C)C(C(=O)N2CCN(C(=O)Nc3ccc(Cl)c(Cl)c3)CC2)C1 (racemic) | 5500 |  |  |  |  |  | 13000 |
| O=C(Nc1ccc(Cl)c(Cl)c1)N1CCN(CC2CCCNC2)CC1 (racemic) | 780 | 950 |  |  |  |  |  |
| O=C(Nc1ccccc1)N1CCN(C[C@@H]2CCCN(C3CC3)C2)CC1 | 710 | > 3000 |  |  |  |  |  |
| CN1CCCC(CN2CCN(C(=O)Nc3ccc(Cl)c(Cl)c3)CC2)C1 (stereo unspecified) | 170 | 965 | 400 |  |  |  | 1600 |
| CCN1CCNC(CN2CCN(C(=O)Nc3ccc(Cl)c(Cl)c3)CC2)C1 (racemic) | 797 |  |  |  |  |  | 8900 |
| O=C(Nc1ccc(Cl)c(Cl)c1)N1CCN(C[C@H]2CN(C3CC3)CCO2)CC1 | 267 | 262 |  |  |  |  |  |
| N#Cc1ccc(NC(=O)N2CCN(C[C@@H]3CCCN(C4CC4)C3)CC2)cc1 | 449 | 4360 |  |  |  |  |  |

Compounds with a lower IC50 [1], results first:

| IC50 [1] [nM] | IC50 [2] [nM] | Ki [4] [nM] | logD [5] | logP [6] | pKa [7] | Compound | IC50 [3] [nM] |
| --- | --- | --- | --- | --- | --- | --- | --- |
| 69 | 362 |  |  |  |  | CN1CCN[C@@H](C(=O)N2CCN(C(=O)Nc3ccc(Cl)c(Cl)c3)CC2)C1 | 20000 |
| 37 | 174 |  |  |  |  | CCN1CCC[C@@H](CN2CCN(C(=O)Nc3ccc(Cl)c(Cl)c3)CC2)C1 | 2100 |
| 17 | 31 |  |  |  |  | O=C(Nc1ccc(C(F)(F)F)c(Cl)c1)N1CCN(C[C@@H]2CCCN(C3CC3)C2)CC1 |  |
| 5 | 42 |  |  |  |  | O=C(Nc1ccc(Cl)c(Cl)c1)N1CCN(C[C@@H]2CCCN(CCc3ccccc3)C2)CC1 |  |
| 21 | 55 |  |  |  |  | CCN1CCN[C@@H](C(=O)N2CCN(C(=O)Nc3ccc(Cl)c(Cl)c3)CC2)C1 |  |
| 16 | 58 |  | 1.62 | 4.2 | 10 | CC(C)N1CCC[C@@H](CN2CCN(C(=O)Nc3ccc(Cl)c(Cl)c3)CC2)C1 | 1300 |
| 32 | 38 |  |  |  |  | O=C(Nc1ccc(Cl)c(Cl)c1)N1CCN(C(=O)[C@H]2CN(C3CC3)CCN2)CC1 | 19000 |
| 98 | 578 |  |  |  |  | O=C(Nc1cccc(C(F)(F)F)c1)N1CCN(C[C@@H]2CCCN(C3CC3)C2)CC1 | 13000 |
| 64 | 280 |  |  |  |  | O=C(Nc1ccc(Cl)c(Cl)c1)N1CCN(C[C@@H]2CCCN(CCCc3ccccc3)C2)CC1 | 400 |
| 68 | 593 |  |  |  |  | O=C(Nc1ccc(C(F)(F)F)cc1)N1CCN(C[C@@H]2CCCN(C3CC3)C2)CC1 |  |
| 17 | 42 |  |  |  |  | CC(C)N1CCO[C@@H](CN2CCN(C(=O)Nc3ccc(Cl)c(Cl)c3)CC2)C1 | 6300 |
